Results reported in patent publication EP3130594B1, “PHOSPHONATES OF ACETYLENIC BETULIN DERIVATIVES WITH ANTICANCER ACTIVITY, METHOD FOR THEIR PRODUCTION AND THEIR APPLICATION” (Slaski Uniwersytet Medyczny w Katowicach, priority 2015, dated 2017).
≈ marks a conversion by molar mass, not a printed value.

How the values were obtained:
Assay in all cases: Cytotoxic activity in vitro, WST1 test
brain glioma SNB-19 = assay type: cell-based; details: Homo sapiens, SNB-19 cells, read-out: Cytotoxic activity in vitro as IC50
Procedure: (§1) The evaluation of cytotoxic activity of the compounds described with Formula 2 was carried out against human cancer cells [brain glioma SNB-19, breast cancer T47D, melanoma C32] using WST1 tests (Table 1).

melanoma C32 = assay type: cell-based; details: Homo sapiens, C32 cells, read-out: Cytotoxic activity in vitro as IC50
Procedure: as §1

breast cancer T47D = assay type: cell-based, human; details: T47D cells, Neg = no activity in the applied concentration range; for IC50: Homo sapiens, read-out: Cytotoxic activity in vitro as IC50
Procedure: as §1

Structure (SMILES)	IC50 (brain glioma SNB-19) [µg/mL]	IC50 (melanoma C32) [µg/mL]	IC50 (breast cancer T47D) [µg/mL]	Cytotoxic activity in vitro as IC50 (breast cancer T47D)
CC#CC(=O)OC[C@]12CC[C@@H](/C(C)=C/P(=O)(OCC)OCC)[C@@H]1[C@H]1CC[C@@H]3[C@@]4(C)CC[C@H](OC(=O)C#CC)C(C)(C)[C@@H]4CC[C@@]3(C)[C@]1(C)CC2 [3,28-Di(2-butynoyl)-29-diethoxyphosphorylbetulin]	7.6 ± 1 (≈ 10.7 µM)	4.9 ± 0.3 (≈ 6.89 µM)	13.9 ± 3.4 (≈ 19.6 µM)	–
CCOP(=O)(/C=C(\C)[C@@H]1CC[C@]2(COC(=O)C#CC3CC3)CC[C@]3(C)[C@H](CC[C@@H]4[C@@]5(C)CC[C@H](OC(=O)C#CC6CC6)C(C)(C)[C@@H]5CC[C@]43C)[C@@H]12)OCC [3,28-Di(cyclopropylpropynoyl)-29-diethoxyphosphorylbetulin]	40.4 ± 6.8 (≈ 52.9 µM)	9.4 ± 0.2 (≈ 12.3 µM)	79.5 ± 1.9 (≈ 104 µM)	–
CCOP(=O)(/C=C(\C)[C@@H]1CC[C@]2(COC(=O)C#CC3CC3)CC[C@]3(C)[C@H](CC[C@@H]4[C@@]5(C)CC[C@H](O)C(C)(C)[C@@H]5CC[C@]43C)[C@@H]12)OCC [28-cyclopropylpropynoyl-29-diethoxyphosphorylbetulin]	2.2 ± 0.8 (≈ 3.28 µM)	4.7 ± 0.7 (≈ 7.01 µM)	8.2 ± 0.6 (≈ 12.2 µM)	–
C#CCOC(=O)OC[C@]12CC[C@@H](/C(C)=C/P(=O)(OCC)OCC)[C@@H]1[C@H]1CC[C@@H]3[C@@]4(C)CC[C@H](O)C(C)(C)[C@@H]4CC[C@@]3(C)[C@]1(C)CC2 [29-Diethoxyphosphoryl-28-propargyloxycarbonylbetulin]	24.5 ± 12.6 (≈ 37.1 µM)	5.9 ± 0.3 (≈ 8.93 µM)	49.4 ± 6.1 (≈ 74.7 µM)	–
C#CCOC(=O)OC[C@]12CC[C@@H](/C(C)=C/P(=O)(OCC)OCC)[C@@H]1[C@H]1CC[C@@H]3[C@@]4(C)CC[C@H](OC(=O)OCC#C)C(C)(C)[C@@H]4CC[C@@]3(C)[C@]1(C)CC2 [29-diethoxyphosphoryl-3,28-di(propargyloxycarbonyl)betulin]	0.5 ± 0.1 (≈ 0.673 µM)	51.7 ± 4.8 (≈ 69.6 µM)	–	Neg
C=C(C)[C@@H]1CC[C@]2(CO)CC[C@]3(C)[C@H](CC[C@@H]4[C@@]5(C)CC[C@H](O)C(C)(C)[C@@H]5CC[C@]43C)[C@@H]12 [Betulin, lup-20(29)-ene-3β,28-diol]	23.5 ± 2 (≈ 53.1 µM)	–	77.9 ± 4 (≈ 176 µM)	–
C=C(CP(=O)(OCC)OCC)[C@@H]1CC[C@]2(COC(C)=O)CC[C@]3(C)[C@H](CC[C@@H]4[C@@]5(C)CC[C@H](OC(C)=O)C(C)(C)[C@@H]5CC[C@]43C)[C@@H]12 [R = R1 = Et, R2 = AcO, R3 = CH2OAc, 3, 28 - Diacetyl - 30 - diethoxyphosphorylbetulin]	51.9 ± 0.8 (≈ 78.3 µM)	–	58 ± 3.4 (≈ 87.5 µM)	–
C#CC(=O)OC[C@]12CC[C@@H](/C(C)=C/P(=O)(OCC)OCC)[C@@H]1[C@H]1CC[C@@H]3[C@@]4(C)CC[C@H](O)C(C)(C)[C@@H]4CC[C@@]3(C)[C@]1(C)CC2 [R = R1 = Et, R2 = HO, R3 =CH2C(O)C≡CH, 29-Diethoxyphosphoryl-28-propynoylbetulin]	0.3 ± 0.1 (≈ 0.476 µM)	–	0.4 ± 0.1 (≈ 0.634 µM)	–
CC#CC(=O)OC[C@]12CC[C@@H](/C(C)=C/P(=O)(OCC)OCC)[C@@H]1[C@H]1CC[C@@H]3[C@@]4(C)CC[C@H](O)C(C)(C)[C@@H]4CC[C@@]3(C)[C@]1(C)CC2 [R = R1 =Et, R2 =HO, R3 =CH2OC(O)C ≡ CCH3, 28-(2-butynoyl)-29-diethoxyphosphorylbetulin]	7.5 ± 0.3 (≈ 11.6 µM)	4.9 ± 0.1 (≈ 7.6 µM)	9.6 ± 0.6 (≈ 14.9 µM)	–
C#CC(=O)OC[C@]12CC[C@@H](/C(C)=C/P(=O)(OCC)OCC)[C@@H]1[C@H]1CC[C@@H]3[C@@]4(C)CC[C@H](OC(=O)C#C)C(C)(C)[C@@H]4CC[C@@]3(C)[C@]1(C)CC2 [R=R1=Et, R2=HC≡CC(O)O, R3 = CH2C(O)C≡CH, 29-Diethoxyphosphoryl-3,28-dipropynoylbetulin]	0.6 ± 0.1 (≈ 0.879 µM)	–	2.8 ± 0.6 (≈ 4.1 µM)	–
CCOP(=O)(/C=C(/C)[C@@H]1CC[C@]2(CO)CC[C@]3(C)[C@H](CC[C@@H]4[C@@]5(C)CC[C@H](O)C(C)(C)[C@@H]5CC[C@]43C)[C@@H]12)OCC [cis R = R1 = Et, R2 =OH, R3 = CH2OH, Z - 29 - Diethoxyphosphorylbetulin]	4.8 ± 0.1 (≈ 8.29 µM)	–	0.9 ± 0.1 (≈ 1.55 µM)	–
CCOP(=O)(/C=C(\C)[C@@H]1CC[C@]2(CO)CC[C@]3(C)[C@H](CC[C@@H]4[C@@]5(C)CC[C@H](O)C(C)(C)[C@@H]5CC[C@]43C)[C@@H]12)OCC [trans R = R1 =Et, R2= OH, R3 = CH2OH, E-29-Diethoxyphosphorylbetulin]	5.9 ± 0.4 (≈ 10.2 µM)	–	6.2 ± 0.5 (≈ 10.7 µM)	–
